{"source": "patent US20120252045A1", "about": "“METHOD OF ASSESSING ISLET FUNCTION” (priority 2009, published 2012)", "key": {"[1]": {"tested_on": "β-TC6 cells", "details": "n=4", "protocol": "(§1) Porcine islet OCRs were assessed in triplicate aliquots of 1000 IEQ. Controls comprising media alone and heat-killed islets (1000 IEQ ×3 incubated for 1 hour at 60° C.) were assayed in parallel. OCRs were measured using a fiber optic sensor oxygen monitoring system (Instech Laboratories Plymouth Meeting, Pa.), which quantifies the decrease in oxygen partial pressure (pO2) over time, as described by Papas et al., “A Stirred Microchamber for Oxygen Consumption Rate Measurements with Pancreatic Islet Cells,” Biotechnol Bioeng 2007; 98: 1071-1082. OCRs were standardized to the amount of DNA in each chamber (nmol/min-mgDNA), which was determined using a Quant-iT PicoGreen dsDNA kit (Molecular Probes, Eugene, Oreg.).\nReductions in OCR were assessed by comparing the effect of the NaAz on the OCR measurements to the OCR capability of non-treated cells. BTC6 cells and Hela cells were incubated on 150 mm culture dishes for 2 days in a 37° C. incubator with a 5% CO2 environment. The cells were then removed using 5 mM EDTA/PBS and washed once with PBS. The resulting cell pellet was resuspended in 5 mL of DMEM (Sigma) supplemented with 5% FCS (Sigma) and Penicillin/Streptomycin (Invitrogen). Cells were then incubated with various concentrations (0.01, 0.1, 1.0 and 10 mg/ml) of sodium azide (Sigma) for 10 minutes prior to measuring their oxygen consumption rates."}, "[2]": {"tested_on": "adult porcine islets", "details": "vs non-NaAz treated cells", "protocol": "as §1\nThe experiment was repeated 3 times."}}, "note": "Like-named read-outs stand apart in the source and are kept apart here."}
{"compound": "[N-]=[N+]=[N-]", "note": "[NaAz, sodium azide]", "values": [{"measurement": "reduction in OCR", "setting": "[1]; β-TC6 cells incubated with 0.1 mg/ml NaAz for 10 minutes", "value": "29.8±4.5", "unit": "%"}, {"measurement": "reduction in OCR", "setting": "[1]; β-TC6 cells incubated with 1 mg/ml NaAz for 10 minutes", "value": "71.2±6.6", "unit": "%"}, {"measurement": "reduction in OCR", "setting": "[1]; β-TC6 cells incubated with 10 mg/ml NaAz for 10 minutes", "value": "85.9±2.3", "unit": "%"}, {"measurement": "reduction in OCR", "setting": "[2]; islets incubated with 0.1 mg/ml NaAz for 10 minutes", "value": 37.6, "unit": "%"}, {"measurement": "reduction in OCR", "setting": "[2]; islets incubated with 1 mg/ml NaAz for 10 minutes", "value": 59.7, "unit": "%"}, {"measurement": "reduction in OCR", "setting": "[2]; islets incubated with 10 mg/ml NaAz for 10 minutes", "value": 84.2, "unit": "%"}]}
